ChEMBL document CHEMBL1759934, “Virtual screening-driven identification of human carbonic anhydrase inhibitors incorporating an original, new pharmacophore” (Bioorg Med Chem Lett, 2011)

Experiments:
Carbonic anhydrase 1 = Carbonic anhydrase 1 (Homo sapiens, UniProt P00915); test: Inhibition of human carbonic anhydrase 1 after 6 hrs by Lineweaver-Burk plot analysis
Carbonic anhydrase 2 = Carbonic anhydrase 2 (Homo sapiens, UniProt P00918); test: Inhibition of human carbonic anhydrase 2 after 6 hrs by Lineweaver-Burk plot analysis

Carbonic anhydrase 1, sequence (P00915 whole entry): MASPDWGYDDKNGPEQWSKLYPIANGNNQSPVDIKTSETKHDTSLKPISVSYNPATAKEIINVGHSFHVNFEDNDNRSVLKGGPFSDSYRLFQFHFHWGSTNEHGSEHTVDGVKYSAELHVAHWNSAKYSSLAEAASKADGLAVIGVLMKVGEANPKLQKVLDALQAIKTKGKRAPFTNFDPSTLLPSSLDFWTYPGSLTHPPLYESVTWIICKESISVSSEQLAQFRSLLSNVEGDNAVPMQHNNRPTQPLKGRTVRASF

- Ki (Carbonic anhydrase 1): 410 µM
- Ki (Carbonic anhydrase 2): 9 µM
Compound: Cc1ccc(C(=O)C(O)(O)C(F)(F)F)cc1
